How the values were obtained:
thyroid peroxidase (TPO) = molecular target: T1, thyroid peroxidase (TPO) (Homo sapiens, UniProt P07202); assay: guaiacol oxidation assay with digitonin-extracted recombinant TPO; type: cell-based
T1 sequence (P07202 19-933): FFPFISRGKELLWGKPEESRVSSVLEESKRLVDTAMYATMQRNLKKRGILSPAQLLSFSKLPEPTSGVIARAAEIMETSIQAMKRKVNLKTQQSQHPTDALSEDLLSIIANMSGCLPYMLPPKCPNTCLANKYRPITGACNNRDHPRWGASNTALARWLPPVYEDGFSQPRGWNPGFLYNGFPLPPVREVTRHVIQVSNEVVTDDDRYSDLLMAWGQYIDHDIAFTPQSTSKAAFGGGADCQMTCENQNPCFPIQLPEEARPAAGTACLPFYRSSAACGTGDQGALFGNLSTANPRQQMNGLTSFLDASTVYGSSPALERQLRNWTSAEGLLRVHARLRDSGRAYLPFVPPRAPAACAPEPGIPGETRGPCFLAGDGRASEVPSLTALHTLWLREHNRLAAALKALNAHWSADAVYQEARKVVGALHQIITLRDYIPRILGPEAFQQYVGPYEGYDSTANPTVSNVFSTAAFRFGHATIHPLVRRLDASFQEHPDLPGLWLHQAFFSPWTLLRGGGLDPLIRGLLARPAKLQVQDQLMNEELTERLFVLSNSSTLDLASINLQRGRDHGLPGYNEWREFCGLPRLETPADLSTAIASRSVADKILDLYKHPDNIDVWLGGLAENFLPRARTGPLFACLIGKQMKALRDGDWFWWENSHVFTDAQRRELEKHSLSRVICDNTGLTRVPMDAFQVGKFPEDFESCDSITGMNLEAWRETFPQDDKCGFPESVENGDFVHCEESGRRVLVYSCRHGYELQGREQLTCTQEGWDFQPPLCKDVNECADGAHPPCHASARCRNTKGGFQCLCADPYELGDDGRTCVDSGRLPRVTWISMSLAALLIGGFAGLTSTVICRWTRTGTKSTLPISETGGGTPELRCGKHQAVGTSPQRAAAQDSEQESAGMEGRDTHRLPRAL

transthyretin (TTR) = transthyretin (TTR) (Homo sapiens, UniProt P02766); assay: […]T4 displacement; type: binding; conditions: cited from earlier work

Structure (SMILES)	IC50 (thyroid peroxidase (TPO))	IC50 (transthyretin (TTR)) [nM]
CC(C)(c1ccc(O)cc1)c1ccc(O)cc1 [bisphenol A]	the industrial chemicals 4-NP and BPA also inhibited TPO	
O=c1c(-c2ccc(O)cc2)coc2cc(O)ccc12 [daidzein]		1800
O=c1c(-c2ccc(O)cc2)coc2cc(O)cc(O)c12 [genistein]		70
COc1cc2c(=O)c(-c3ccc(O)cc3)coc2cc1O [glycitein]		200
